Data from patent US20250120394A1, “SILANE SURFACTANT FOR AGRICULTURAL USE” (MOMENTIVE PERFORMANCE MATERIALS INC., priority 2023, published 2025).
Structures can show the parent of a compound that is named as a salt.

Columns and labels:
Format in all cases: in vivo
[1] = test system: red banded stink bug (Piezodorus guildinii); assay: Field trial: control of stink bug on green beans with Cefanol acephate plus adjuvant; conditions: Cefanol acephate 0.50 kg/ha alone
Procedure: A composition of the present invention (SIL-8) was compared to a conventional trisiloxane alkoxylate (TSA-2) for the improvement of the insecticide acephate in the control of stink-bug.
The experiment was conducted with a randomized block design, with 6 treatments (including the untreated check) and 4 repetitions. Each plot was of 12 m^2 in area. The data obtained were subjected to analysis of variance and the average of the treatments compared using the Tukey test to 5% probability test.
During the trial there were […] evaluation periods: 0, 3, 5 and 7 Days After Application (DAA), for determining the number of red banded stink bugs in each plot evaluated.
The treatments were applied using a CO2 pressurized Backpack sprayer, with 4 nozzles spaced 50 cm between each one. Nozzles type XR11002 (Flat Fan) and a spray volume 150 L·ha.

[2] = test system: Redroot pigweed (Amaranthus retroflexus, EPPO Code: AMARE); assay: Effect of adjuvant on performance of 2,4-D Amine, lab spray trial, visual weed control; conditions: 2,4-D amine 0.25 wt % alone, no adjuvant
Procedure: (§1) Spray Protocol: A lab spray trial was conducted to evaluate the effect of the silane compositions in accordance with the present technology on the performance of various herbicides.
(§2) Target weeds were grown from seed, under controlled conditions in a “Caron Model 7301-50-2” Growth chamber using simulated full sunlight. Sprays were applied to the target weeds at the 4-6 leaf growth stage using a DeVries Generation 4—Research Track Sprayer with a T-Jet 8002E nozzle at an equivalent spray volume of 100 L/ha.
SIL-8 was compared to a conventional trisiloxane alkoxylate (TSA-1) as a spray adjuvant, to improve the performance of 2,4-D Amine (herbicide) on AMARE. The spray protocol is described above. The 2,4-D Amine was applied at a sub lethal dose (25% of label rate) to show the impact of the adjuvant on performance. Assessment of weed control was made by a visual observation as compared to an untreated check.

[3] = test system: Yellow Foxtail (Setaria pumila); assay: Control of Yellow Foxtail with glyphosate-isopropylamine salt, visual weed control; conditions: glyphosate-isopropylamine salt 0.75% a.i. alone, adjuvant 0
Procedure: as §1, §2
Glyphosate-isopropylamine salt was applied at 0.75% a.i. to Yellow foxtail at a 15 cm growth-stage. The spray mixtures were applied either as herbicide alone, or in combination with the silane compositions SIL-6, SIL-9 and SIL-12 at an equivalent spray volume of 100 L/ha. A visual assessment of weed control was made at 7 and 14 Days After Treatment (DAT). The application method is the same as previously described.

## COP(=O)(NC(C)=O)SC (centres unmarked) [Acephate]
[1]
  Eff. %, 1 DAA: 76.0%
  Eff. %, 3 DAA: 60.0%
  Eff. %, 5 DAA: 45.5%
  Eff. %, 7 DAA: 63.6%
  Number of red banded stink bug, 1 DAA: 0.5 b
  Number of red banded stink bug, 3 DAA: 0.7 b
  Number of red banded stink bug, 5 DAA: 0.5 a
  Number of red banded stink bug, 7 DAA: 0.3 b
[1]; 0 DAA (initial)
  Eff. %, 0 DAA: 0.0%
  Number of red banded stink bug, 0 DAA: 1.8 a

## CNC.O=C(O)COc1ccc(Cl)cc1Cl [2,4-D amine, 2,4-D Amine]
[2]
  Weed control of AMARE, 7-DAT: 46%
  Weed control of AMARE, 14-DAT: 55%

## O=C(O)CNCP(=O)(O)O [Glyphosate, Glyphosate-isopropylamine salt]
[3]
  Weed control of Yellow foxtail, 7 DAT: 20
  Weed control of Yellow foxtail, 14 DAT: 92
